Data: PubChem BioAssay AID1963832 (Molecular Pharmacology Branch, DTP, NCI, 2024)

System: 885724-159-R-J1-PDC complex spheroid viability
Experiment: Anticancer human tumor 885724-159-R-J1-PDC patient-derived pancreatic adenocarcinoma cell line growth inhibition [POLQ]
Details: for IC50: curve of first compound; for viability, T/C: stronger effect = lower value
Description: Multicellular complex tumor spheroid response to Polymerase (POL) inhibitors (novobiocin, ART-558, RP6685) in combination with a variety of drugs and investigational agents in selected tumor cell lines
The POL inhibitors (novobiocin, ART-558, and RP6685) were evaluated both individually and in combination with standard of care and investigational anticancer small molecules within a complex spheroid model of solid tumors. . Complex spheroids include a stromal component modeled by human endothelial cells (HUVEC) and fibroblasts modeled by human mesenchymal stem cells (MSCs). The concentration ranges selected for each drug and investigational agent were based upon clinically achievable concentrations if the clinical Cmax of the agent was known.
Compounds. The drugs and investigational agents: novobiocin (NSC847541), ART-558 (NSC835418), RP-6685 (NSC848927), peposertib (NSC802822), ceralasertib (NSC780249), elimusertib (NSC800525), camonsertib (NSC841442), AZD-1390 (NSC803789), olaparib (NSC753686), talazoparib (NSC767125), rucaparib (NSC756644), sotorasib (NSC818433), MRTX-1133 (NSC836407), SN-38 (NSC673596), topotecan (NSC609699), epotoside (NSC141540), doxorubicin (NSC123127), gemcitabine (NSC613327), 5-fluorouracil (NSC19893), paclitaxel (NSC125973), vemurafenib (NSC761431), MSA-2 (NSC828583), SN-011 (NSC837082), adavosertib (NSC754352), prexasertib (NSC758257), carboplatin (NSC241240) and oxaliplatin (NSC266046), were obtained from the National Cancer Institute (NCI) Developmental Therapeutics Program Chemical Repository (21). The FDA-approved anticancer drug set is available from the Developmental Therapeutics Program at https://dtp.cancer.gov/organization/dscb/obtaining/. […] The stock solutions were prepared in dimethyl sulfoxide (DMSO, Sigma-Aldrich, St. Louis, MO, cat. D2650), except for the platinum compounds which were prepared in saline (Quality Biological, Gaithersburg, MD, cat. 114-055-101), at 800-fold the tested concentration and stored at -70 degrees C prior to their use. All drugs and investigational agents were tested over a range starting from a high concentration at or near the clinical Cmax and decreasing in half-log increments. If the clinical Cmax for an agent had not been determined, the highest concentration tested was 10 microM, except for SN-38, which was tested at a high concentration of 1 microM.
Cell Culture. All cells were maintained in an incubator at 37 degrees C and 5% CO2 with 95% humidity. The PDC lines were cultured according to standard operating procedures established by the NCI PDMR (https://pdmr.cancer.gov). Table 3 of the manuscript, lists the cell lines along with the number of the three cell types plated to form the mct-spheroids and media for tumor cell growth. After thawing, all PDC lines, except 997537-175-T-J1-PDC and 415267-285-R-J2-PDC, were cultured in Matrigel-coated flasks prepared with a working solution of 1X Ham's F-12 nutrient mix, without supplementation (Thermo Fisher Scientific, cat. 11765054), 100 U/mL penicillin-streptomycin (Thermo Fisher Scientific, cat. 15140122), and 2.5% Matrigel (Corning Inc., Corning, NY, cat. 354248) for the first three passages. The two PDC lines 997537-175-T-J1-PDC and 415267-285-R-J2-PDC were cultured on uncoated flasks. The 857933-349-R-J2-PDC line was cultured in 6C/Colon 1B media containing advanced DMEM/F-12 (Thermo Fisher Scientific, cat. 12634028), 10 mM HEPES (Thermo Fisher Scientific, cat. 15630080), 1X GlutaMAX supplement (Thermo Fisher Scientific, cat. 35050061), 0.1 mg/mL primocin (InvivoGen, San Diego, CA, cat. ant-pm-2), 10% defined fetal bovine serum, heat inactivated (HyClone Laboratories Inc., Logan, UT, cat. SH30070.03HI), 50% L-WRN conditioned media (ATCC, cat. CRL-3276), 1.25 mM N-Acetyl-L-cysteine (Sigma-Aldrich, cat. A9165), 10 mM nicotinamide (Sigma-Aldrich, cat. N0636), 1X B-27 supplement (Thermo Fisher Scientific, cat. 17504044), 1X N-2 supplement (Thermo Fisher Scientific, cat. […]
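Further: spheroids exposed to compounds for 7 days.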

SMILES: COc1cc2cc(C(=O)CCC(=O)O)sc2cc1OC + Nc1ccc(C#CCN(C(=O)Cc2ncc(C(F)(F)F)cc2C(F)(F)F)c2ccc(F)cc2)nn1
- IC50 (second compound 0.0316 µM): > 10 µM
- IC50 (second compound 0.1 µM): > 10 µM
- IC50 (second compound 0.316 µM): > 10 µM
- IC50 (second compound 1 µM): > 10 µM
- IC50 (second compound 3.16 µM): > 10 µM
- IC50 (second compound 10 µM): > 10 µM
- viability, T/C (second compound 0.0316 µM, first compound 0.0316 µM): 96.1%
- viability, T/C (second compound 0.0316 µM, first compound 0.1 µM): 105%
- viability, T/C (second compound 0.0316 µM, first compound 0.316 µM): 98.3%
- viability, T/C (second compound 0.0316 µM, first compound 1 µM): 108%
- viability, T/C (second compound 0.0316 µM, first compound 3.16 µM): 107%
- viability, T/C (second compound 0.0316 µM, first compound 10 µM): 100%
- viability, T/C (second compound 0.1 µM, first compound 0.0316 µM): 103%
- viability, T/C (second compound 0.1 µM, first compound 0.1 µM): 106%
- viability, T/C (second compound 0.1 µM, first compound 0.316 µM): 98.8%
- viability, T/C (second compound 0.1 µM, first compound 1 µM): 95.7%
- viability, T/C (second compound 0.1 µM, first compound 3.16 µM): 101%
- viability, T/C (second compound 0.1 µM, first compound 10 µM): 88.8%
- viability, T/C (second compound 0.316 µM, first compound 0.0316 µM): 101%
- viability, T/C (second compound 0.316 µM, first compound 0.1 µM): 95.3%
- viability, T/C (second compound 0.316 µM, first compound 0.316 µM): 90%
- viability, T/C (second compound 0.316 µM, first compound 1 µM): 109%
- viability, T/C (second compound 0.316 µM, first compound 3.16 µM): 97.6%
- viability, T/C (second compound 0.316 µM, first compound 10 µM): 86.3%
- viability, T/C (second compound 1 µM, first compound 0.0316 µM): 94.9%
- viability, T/C (second compound 1 µM, first compound 0.1 µM): 95.2%
- viability, T/C (second compound 1 µM, first compound 0.316 µM): 94.4%
- viability, T/C (second compound 1 µM, first compound 1 µM): 92.4%
- viability, T/C (second compound 1 µM, first compound 3.16 µM): 103%
- viability, T/C (second compound 1 µM, first compound 10 µM): 88.9%
- viability, T/C (second compound 3.16 µM, first compound 0.0316 µM): 91.1%
- viability, T/C (second compound 3.16 µM, first compound 0.1 µM): 94.5%
- viability, T/C (second compound 3.16 µM, first compound 0.316 µM): 103%
- viability, T/C (second compound 3.16 µM, first compound 1 µM): 94.1%
- viability, T/C (second compound 3.16 µM, first compound 3.16 µM): 104%
- viability, T/C (second compound 3.16 µM, first compound 10 µM): 86.4%
- viability, T/C (second compound 10 µM, first compound 0.0316 µM): 107%
- viability, T/C (second compound 10 µM, first compound 0.1 µM): 97.3%
- viability, T/C (second compound 10 µM, first compound 0.316 µM): 92.7%
- viability, T/C (second compound 10 µM, first compound 1 µM): 96.8%
- viability, T/C (second compound 10 µM, first compound 3.16 µM): 114%
- viability, T/C (second compound 10 µM, first compound 10 µM): 96%
